Source: ChEMBL document CHEMBL1201862, “PubChem BioAssay data set” (2004)
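Five concentrations, 48 hours, 96-well plates. GI50 = concentration required for 50% inhibition of growth.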 Active and inactive are the calls of the source. No stated cut-off is given here; in the data, active = GI50 up to about 1.1 µM and inactive = higher.

Columns and labels:
Test in all cases: NCI-60 cell line screen, 48 h
UACC-257 = tested on: UACC-257
MDA-MB-231 = tested on: MDA-MB-231
UACC-62 = tested on: UACC-62
SK-MEL-2 = tested on: SK-MEL-2
T47D = tested on: T47D
ACHN = tested on: ACHN
EKVX = tested on: EKVX
SK-MEL-28 = tested on: SK-MEL-28
HOP-62 = tested on: HOP-62
NCI-H226 = tested on: NCI-H226
M14 = tested on: M14
HCT-116 = tested on: HCT-116
TK-10 = tested on: TK-10
SNB-75 = tested on: SNB-75
MCF7 = tested on: MCF7
RPMI-8226 = tested on: RPMI-8226
HT-29 = tested on: HT-29
OVCAR-5 = tested on: OVCAR-5
IGROV-1 = tested on: IGROV-1

Measured: GI50

O=C(C=P(c1ccccc1)(c1ccccc1)c1ccccc1)c1ccc(-c2cccc([N+](=O)[O-])c2)cc1
inactive: UACC-257 3.27 µM | MDA-MB-231 2.65 µM | UACC-62 4.2 µM | SK-MEL-2 1.63 µM | T47D 3.85 µM | ACHN 2.82 µM | EKVX 2.69 µM | SK-MEL-28 4.98 µM | HOP-62 5.86 µM | NCI-H226 5.01 µM | M14 2.05 µM | HCT-116 2.21 µM | TK-10 3.23 µM | SNB-75 2.29 µM | MCF7 3.13 µM | RPMI-8226 1.87 µM | HT-29 1.75 µM | OVCAR-5 3.61 µM

Cn1c(N)nc2c(nc(OCc3ccccc3)n2C2OC(CO)C(O)C2O)c1=O (centres undefined)
inactive: UACC-257 > 100 µM | MDA-MB-231 > 100 µM | UACC-62 > 100 µM | SK-MEL-2 > 100 µM | IGROV-1 > 100 µM | T47D > 100 µM | ACHN > 100 µM | EKVX > 100 µM | SK-MEL-28 > 100 µM | HOP-62 > 100 µM | NCI-H226 > 100 µM | M14 > 100 µM | HCT-116 > 100 µM | TK-10 > 100 µM | SNB-75 > 100 µM | MCF7 > 100 µM | RPMI-8226 > 100 µM | HT-29 > 100 µM | OVCAR-5 > 100 µM

Oc1ccc[n+](Cc2ccccc2)c1
inactive: UACC-257 > 100 µM | MDA-MB-231 > 100 µM | UACC-62 > 100 µM | SK-MEL-2 > 100 µM | T47D > 100 µM | ACHN > 100 µM | SK-MEL-28 > 100 µM | HOP-62 > 100 µM | NCI-H226 > 100 µM | M14 > 100 µM | HCT-116 > 100 µM | TK-10 > 100 µM | SNB-75 > 100 µM | MCF7 > 100 µM | RPMI-8226 > 100 µM | HT-29 > 100 µM | OVCAR-5 > 100 µM

CC(=O)OCC1OC(O[C@@H]2C[C@H]3C(C)(C)[C@H](OC(C)=O)CC[C@]3(C)[C@H]3CC[C@]4(C)C(=CC[C@H]4[C@@H](C)C[C@@H](O)[C@H](O)C(C)(C)O)[C@@]32C)C(O)C(O)C1O (some centres undefined)
inactive: UACC-257 19 µM | MDA-MB-231 16.9 µM | UACC-62 16.1 µM | SK-MEL-2 17.4 µM | IGROV-1 18.6 µM | T47D 16.7 µM | ACHN 16.7 µM | EKVX 19.1 µM | SK-MEL-28 15.9 µM | HOP-62 15.8 µM | M14 21.3 µM | HCT-116 14.4 µM | TK-10 17 µM | SNB-75 22 µM | MCF7 17.3 µM | RPMI-8226 12.2 µM | HT-29 17.4 µM | OVCAR-5 14.1 µM

Cc1ccc([Se](=C(C(=O)c2ccccc2)C(=O)c2ccccc2)c2ccc(C)cc2)cc1
inactive: UACC-257 17.5 µM | MDA-MB-231 15.8 µM | UACC-62 20.7 µM | SK-MEL-2 30.8 µM | IGROV-1 19.6 µM | T47D 34.3 µM | ACHN 24.5 µM | SK-MEL-28 31 µM | HOP-62 48 µM | NCI-H226 20.2 µM | M14 33.6 µM | HCT-116 34.4 µM | TK-10 23.4 µM | SNB-75 37.8 µM | MCF7 26.7 µM | RPMI-8226 4.14 µM | HT-29 18.7 µM | OVCAR-5 38.8 µM

CN(C)CCCSc1c2ccccc2nc2cc(NCC(=O)Nc3ccccc3-c3ccccc3NC(=O)CNc3ccc4c(SCCCN(C)C)c5ccccc5nc4c3)ccc12
inactive: UACC-257 > 100 µM | UACC-62 > 100 µM | SK-MEL-2 > 100 µM | IGROV-1 > 100 µM | ACHN > 100 µM | EKVX > 100 µM | SK-MEL-28 > 100 µM | HOP-62 > 100 µM | NCI-H226 > 100 µM | M14 > 100 µM | HCT-116 > 100 µM | TK-10 > 100 µM | SNB-75 > 100 µM | RPMI-8226 65 µM | HT-29 > 100 µM | OVCAR-5 > 100 µM

C/N=C/N(C)c1c2ccccc2nc2ccccc12
inactive: UACC-257 > 100 µM | MDA-MB-231 > 100 µM | UACC-62 > 100 µM | SK-MEL-2 > 100 µM | IGROV-1 > 100 µM | T47D 85.7 µM | ACHN > 100 µM | EKVX > 100 µM | SK-MEL-28 > 100 µM | HOP-62 > 100 µM | NCI-H226 > 100 µM | M14 > 100 µM | HCT-116 > 100 µM | TK-10 > 100 µM | SNB-75 90.6 µM | MCF7 > 100 µM | RPMI-8226 > 100 µM | HT-29 > 100 µM | OVCAR-5 > 100 µM

O=C1Nc2cc(Cl)ccc2N=CC1NC(=O)C(c1ccccc1)c1ccccc1Cl (centres undefined)
inactive: UACC-257 > 100 µM | UACC-62 > 100 µM | SK-MEL-2 > 100 µM | IGROV-1 > 100 µM | ACHN > 100 µM | EKVX > 100 µM | SK-MEL-28 > 100 µM | HOP-62 > 100 µM | NCI-H226 > 100 µM | M14 > 100 µM | HCT-116 > 100 µM | TK-10 > 100 µM | SNB-75 > 100 µM | RPMI-8226 > 100 µM | HT-29 > 100 µM | OVCAR-5 > 100 µM

Clc1ccc(-n2nnc(C3=NCCCN3)c2-c2ccccc2)cc1
inactive: UACC-257 > 100 µM | UACC-62 > 100 µM | SK-MEL-2 > 100 µM | IGROV-1 > 100 µM | ACHN > 100 µM | EKVX > 100 µM | SK-MEL-28 > 100 µM | HOP-62 > 100 µM | NCI-H226 > 100 µM | M14 > 100 µM | HCT-116 > 100 µM | TK-10 > 100 µM | SNB-75 > 100 µM | RPMI-8226 > 100 µM | HT-29 > 100 µM | OVCAR-5 > 100 µM

O=C(CC(=O)Nc1cccc(Cl)c1)NNCC(=O)Nc1nnc(-c2ccccc2)s1
inactive: UACC-257 99.1 µM | UACC-62 62.4 µM | SK-MEL-2 > 100 µM | IGROV-1 > 100 µM | ACHN 39.8 µM | EKVX 57.3 µM | SK-MEL-28 > 100 µM | HOP-62 21.9 µM | NCI-H226 22.9 µM | M14 30.4 µM | HCT-116 24.8 µM | TK-10 45.2 µM | SNB-75 9.38 µM | RPMI-8226 14.2 µM | HT-29 80 µM | OVCAR-5 > 100 µM

CC(C)C(Nc1c2ccccc2[n+]([O-])c2ccccc12)C(=O)O (centres undefined)
inactive: UACC-257 66.2 µM | UACC-62 57.3 µM | SK-MEL-2 84.9 µM | IGROV-1 > 100 µM | ACHN 35.2 µM | EKVX > 100 µM | SK-MEL-28 43.1 µM | HOP-62 > 100 µM | NCI-H226 35.6 µM | M14 91.2 µM | HCT-116 44.6 µM | TK-10 > 100 µM | SNB-75 58.9 µM | RPMI-8226 19.7 µM | HT-29 > 100 µM | OVCAR-5 > 100 µM
